This experiment deals with HCV genotype 1b replicon in Huh 7 cells. Kind of experiment: HCV replicon assay (luciferase readout, 1b_Huh-Luc/Neo-ET cell line). The conditions noted are these: Hepatitis C virus, Huh-7, 72 h. The class given is cell-based. In outline:
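Inhibition expressed as percent of untreated control luciferase signal and fitted to a Hill-slope equation for EC50, with repeat determinations. Compounds were added in triplicate to Huh 7 cells stably expressing the genotype 1b luciferase replicon, with 72 h exposure.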

The mark [1] stands for this setting: read-out: Inhibition of HCV genotype 1b, Table 5, 72 h incubation.
[2] abbreviates: read-out: Inhibition of HCV genotype 1b, Table 3, 72 h incubation.
The mark [3] stands for this setting: read-out: Inhibition of HCV genotype 1b, Table 1, 72 h incubation.

Read-outs that look alike come from different tables or passages of the source.

As for `COC(=O)N[C@H](C(=O)N1CCC[C@H]1c1ncc(C23CCC(c4ccc(-c5cnc([C@@H]6CCCN6C(=O)[C@@H](c6ccccc6)N(C)C)[nH]5)cc4)(CC2)CC3)[nH]1)C(C)C` [compound 2067], the EC50 under setting [1] is under 1 nM.

As for `C[C@@H](c1ncc(C2CCN(c3c(F)cc(-c4cnc([C@@H]5CCCN5C(=O)[C@H](NC(=O)C5CC5)c5ccccc5)[nH]4)cc3F)CC2)[nH]1)N(C)C(=O)[C@H](NC(=O)C1CC1)c1ccccc1` [compound 511], under setting [2], the EC50 is under 1 nM.

As to `CC(C)[C@H](NC(=O)N1CCC(C)(O)CC1)C(=O)N1CCC[C@H]1c1ncc(-c2ccc(C34CCC(c5cnc([C@@H]6CCCN6C(=O)[C@@H](NC(=O)N6CCC(C)(O)CC6)C(C)C)[nH]5)(CC3)CC4)cc2)[nH]1` [compound 634], the EC50 under setting [1] is under 1 nM.

In the case of `O=C(N[C@H]1CC[C@@H](c2ccc(-c3cnc([C@@H]4CCCN4C(=O)[C@H](NC(=O)N4CCOCC4)c4ccccc4)[nH]3)cc2)CC1)[C@@H]1CCCN1C(=O)[C@H](NC(=O)N1CCOCC1)c1ccccc1` [compound 355], the EC50 under setting [3] lay within 1 to 9.9 nM.

On to `COC(=O)N[C@@H](C(=O)N1CCC[C@H]1C(=O)NC1CCN(c2ccc(-c3cnc([C@@H]4CCCN4C(=O)[C@H](NC(=O)OC)c4ccccc4)[nH]3)cc2F)CC1)c1ccccc1` [compound 454], for which, under setting [2], the EC50 was under 1 nM.

Turning to `COC(=O)N[C@@H](C(=O)N1CCC[C@H]1c1ncc(C23CCC(c4ccc(-c5cnc([C@@H]6CCCN6C(=O)[C@H](OC)c6ccccc6)[nH]5)cc4)(CC2)CC3)[nH]1)c1ccccc1` [compound 620], the EC50 under setting [1] is under 1 nM.

As for `CC(C)(C)OC(=O)N[C@@H](C(=O)N1CCC[C@H]1CNC(=O)C12CCC(c3ccc(-c4cnc([C@@H]5CCCN5C(=O)[C@H](NC(=O)OC(C)(C)C)c5ccccc5)[nH]4)cc3)(CC1)CC2)c1ccccc1` [compound 600], under setting [1], the EC50 was in the range of 1 to 9.9 nM.

Regarding `CCN(CC)[C@@H](C(=O)N1CCC[C@H]1c1ncc(C23CCC(c4ccc(-c5cnc([C@@H]6CCCN6C(=O)[C@H](NC(=O)OC)c6ccccc6)[nH]5)cc4)(CC2)CC3)[nH]1)c1ccccc1` [compound 619], under setting [1], the EC50 was under 1 nM.

As for `O=C(N[C@@H](C(=O)N1CCC[C@H]1c1ncc(-c2cc(F)c(N3CCC(c4cnc([C@@H]5COCCN5C(=O)[C@@H](c5ccccc5)N5CCCCC5)[nH]4)CC3)c(F)c2)[nH]1)c1ccccc1)C1CC1` [compound 495], the EC50 under setting [2] was under 1 nM.

`COC(=O)N[C@H](C(=O)N1CCC[C@H]1c1ncc(-c2ccc(-c3ccc4nc([C@@H]5CCCN5C(=O)[C@@H](NC(=O)OC)C(C)C)[nH]c4c3)cc2)[nH]1)C(C)C` [compound 403]: the EC50 (read-out: Inhibition of HCV genotype 1b, Table 2, 72 h incubation) is under 1 nM.

For the molecule `COC(=O)N[C@H](C(=O)N1CCC[C@H]1c1ncc(C2CCN(c3c(F)cc(-c4cnc([C@@H]5CCCN5C(=O)[C@H](NC(=O)OC)c5ccccc5)[nH]4)cc3F)CC2)[nH]1)[C@@H](C)OC` [compound 466], the EC50 under setting [2] was under 1 nM.

For `O=C(N[C@H]1CC[C@H](c2cccc(-c3cnc([C@@H]4CCCN4C(=O)[C@H](NC(=O)N4CCOCC4)c4ccccc4)[nH]3)c2)CC1)[C@@H]1CCCN1C(=O)[C@H](NC(=O)N1CCOCC1)c1ccccc1` [compound 364], under setting [3], the EC50 fell in the range of 1 to 9.9 nM.

Consider `COC(=O)N[C@@H](C(=O)N1CCC[C@H]1c1ncc(-c2cc(F)c(N3CCC(c4cnc([C@@H]5CCCN5C(=O)[C@H](NC(=O)C5CC5)c5ccccc5)[nH]4)CC3)c(F)c2)[nH]1)c1ccccc1` [compound 461], for which the EC50 under setting [2] is under 1 nM.

With `COC(=O)N[C@@H](C)C(=O)N1CCC[C@H]1c1ncc(-c2ccc(C34CCC(c5cnc([C@@H]6CCCN6C(=O)[C@H](C)NC(=O)OC)[nH]5)(CC3)CC4)cc2)[nH]1` [compound 916], the EC50 under setting [1] is under 1 nM.

On to `COC(=O)N[C@H](C(=O)N1CCC[C@H]1c1ncc(-c2ccc([C@H]3CC[C@H](c4cnc([C@@H]5CCCN5C(=O)[C@@H](NC(=O)OC)[C@@H](C)OC)[nH]4)CC3)cc2)[nH]1)[C@@H](C)OC` [compound 388], for which the EC50 under setting [3] is under 1 nM.

For the molecule `COC(=O)N[C@H](C(=O)N1CCC[C@H]1c1ncc(C2CCN(c3c(F)cc(-c4cnc([C@@H]5CCCN5C(=O)[C@H](NC(=O)OC)c5ccccc5)[nH]4)cc3F)CC2)[nH]1)C(C)C` [compound 490], the EC50 under setting [2] was under 1 nM.

The values above are taken from US9120779B2, “Inhibitors of HCV NS5A” (PRESIDIO PHARMACEUTICALS, INC., priority 2008, dated 2015).
